The test system of this experiment is ERISS=Conyza species (fleabane, ERISS). Nature of the experiment: Field trial, post-emergence foliar application, percent weed control visually rated. The experiment is classed as in vivo. From the text: Treatments consisted of the methyl ester of 4-amino-3-chloro-6-(4-chloro-2-fluoro-3-methoxyphenyl)pyridine-2-carboxylic acid (Cmpd 1) tankmixed with saflufenacil or paraquat. The form of compound of formula (I) was applied on an acid equivalent basis, and saflufenacil and paraquat were applied on an active ingredient basis. Saflufenacil was applied as a commercial formulation containing 700 grams per kilogram (g/kg). Paraquat was applied as a commercial formulation containing 200 g/L.
Field trials were conducted under standard field conditions. Plot sizes varied from 2 meters (m) wide by 5 m long. Treatments were applied with small plot backpack sprayers, using pressurized carbon dioxide (CO2) as propellant. Pressure varied from 40-45 pounds per square inch (PSI), with spray tips typically of a Flat Fan type applying water diluent at 100 liters per hectare (L/ha). Boom size was 2 m in width. Weed sizes varied, but all treatments were applied as post-emergence treatments to weeds from 2 leaf to 2 tiller growth stages varying from 2-15 inches in height. No additional adjuvant was mixed with the treatments applied in the field.
Results in Tables 1 to 2 are field trial results for foliar applied compositions. The values reported are percent (%) control visually rated. The predicted percent (%) weed contol was determined using Colby's equation.
ERISS=Conyza species (fleabane, ERISS) g ae/ha=grams acid equivalent per hectare g ai/ha=grams active ingredient per hectare Mean % weed control=observed value of percent (%) control rated visually Predicted mean % weed control=expected value of percent (%) control as calculated by Colby's equation Cmpd 1=methyl 4-amino-3-chloro-6-(4-chloro-2-fluoro-3-methoxyphenyl)pyridine-2-carboxylate, halauxifen-methyl, or ARYLEX® DAA=days after application

“And” between values parts separate entries of the source, which are not always exact repeats. Equal entries are not always repeated.

In the case of `CC(C)N(C)S(=O)(=O)NC(=O)c1cc(-n2c(=O)cc(C(F)(F)F)n(C)c2=O)c(F)cc1Cl` [Saflufenacil, 2-chloro-5-[3,6-dihydro-3-methyl-2,6-dioxo-4-(trifluoromethyl)-1(2H)-pyrimidinyl]-4-fluoro-N-[[methyl(1-methylethyl)amino]sulfonyl]benzamide, reference compound], the “Mean % weed control” value is recorded as 66.25% (Saflufenacil alone, 49 g ai/ha, 17DAA) and 66.25% (Saflufenacil alone, 49 g ai/ha, 28DAA).

Regarding `COC(=O)c1nc(-c2ccc(Cl)c(OC)c2F)cc(N)c1Cl` [Cmpd 1, methyl 4-amino-3-chloro-6-(4-chloro-2-fluoro-3-methoxyphenyl)pyridine-2-carboxylate], the “Mean % weed control” value reads like this: (Cmpd 1 alone, 5 g ae/ha, 17DAA) 33.75%; (Cmpd 1 alone, 5 g ae/ha, 28DAA) 33.75% and 46.25%; (Cmpd 1 alone, 5 g ae/ha, 43DAA) 40% and 57.5%.

Source of the values: patent publication US20190008149A1, “HERBICIDAL COMPOSITIONS CONTAINING 4-AMINO-3-CHLORO-6-(4-CHLORO-2-FLUORO-3-METHOXYPHENYL) PYRIDINE-2-CARBOXYLIC ACID OR A DERIVATIVE THEREOF AND A CELL MEMBRANE DISRUPTOR HERBICIDE OR A DERIVATIVE THEREOF” (Dow AgroSciences LLC, priority 2015, published 2019).
